Experimental data as given in PubChem BioAssay (NCI).
Values joined by “and” are separate entries in the source; they are usually repeats but may differ in a detail not shown here. Identical values can stand only once.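 How tested: cells in 96-well plates exposed to compound for 48 hours at five concentrations. GI50 marks 50% less growth. The concentration for full growth arrest is given as TGI.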

Columns and labels:
Experiment in all cases: NCI tumour cell line growth inhibition, 48 h
786-0 renal = tested on: 786-0 renal
A498 renal = tested on: A498 renal
A549 NSCLC = tested on: A549 NSCLC
BT-549 breast = tested on: BT-549 breast
CAKI-1 renal = tested on: CAKI-1 renal
CCRF-CEM leukemia = tested on: CCRF-CEM leukemia
DU-145 prostate = tested on: DU-145 prostate
EKVX NSCLC = tested on: EKVX NSCLC
HCC-2998 colon = tested on: HCC-2998 colon
HL-60(TB) leukemia = tested on: HL-60(TB) leukemia
HOP-92 NSCLC = tested on: HOP-92 NSCLC
HS 578T breast = tested on: HS 578T breast
HT29 colon = tested on: HT29 colon
IGROV1 ovarian = tested on: IGROV1 ovarian
K-562 leukemia = tested on: K-562 leukemia
KM12 colon = tested on: KM12 colon
M14 melanoma = tested on: M14 melanoma
MALME-3M melanoma = tested on: MALME-3M melanoma
MDA-MB-231 breast = tested on: MDA-MB-231 breast
MDA-MB-435 = tested on: MDA-MB-435
MDA-MB-468 breast = tested on: MDA-MB-468 breast
NCI-H226 lung = tested on: NCI-H226 lung
NCI-H522 lung = tested on: NCI-H522 lung
NCI/ADR-RES ovarian = tested on: NCI/ADR-RES ovarian
OVCAR-4 ovarian = tested on: OVCAR-4 ovarian
OVCAR-5 ovarian = tested on: OVCAR-5 ovarian
OVCAR-8 ovarian = tested on: OVCAR-8 ovarian
PC-3 prostate = tested on: PC-3 prostate
RPMI-8226 leukemia = tested on: RPMI-8226 leukemia
RXF 393 renal = tested on: RXF 393 renal
SF-268 CNS = tested on: SF-268 CNS
SF-539 CNS = tested on: SF-539 CNS
SK-MEL-2 melanoma = tested on: SK-MEL-2 melanoma
SK-MEL-28 melanoma = tested on: SK-MEL-28 melanoma
SK-MEL-5 melanoma = tested on: SK-MEL-5 melanoma
SK-OV-3 ovarian = tested on: SK-OV-3 ovarian
SN12C renal = tested on: SN12C renal
SNB-19 CNS = tested on: SNB-19 CNS
SNB-75 CNS = tested on: SNB-75 CNS
SR leukemia = tested on: SR leukemia
T-47D breast = tested on: T-47D breast
TK-10 renal = tested on: TK-10 renal
UACC-257 melanoma = tested on: UACC-257 melanoma
UACC-62 melanoma = tested on: UACC-62 melanoma
UO-31 renal = tested on: UO-31 renal

Q: Which results are given for `Cn1cc(-c2cc(N)n3nc(-c4c[nH]c5ccccc45)cc3n2)c2cc(Br)ccc21`?
A: GI50 (786-0 renal): 1.88 µM; TGI (786-0 renal): 4.1 µM; GI50 (A498 renal): 2.06 µM; TGI (A498 renal): 7.26 µM; GI50 (A549 NSCLC): 1.91 µM; TGI (A549 NSCLC): 5.18 µM; GI50 (BT-549 breast): 14.1 µM; TGI (BT-549 breast): 44.6 µM; GI50 (CAKI-1 renal): 1.58 µM; TGI (CAKI-1 renal): 3.16 µM; GI50 (CCRF-CEM leukemia): 2.24 µM; TGI (CCRF-CEM leukemia): 6.75 µM; GI50 (DU-145 prostate): 3.33 µM; TGI (DU-145 prostate): 12.3 µM; GI50 (EKVX NSCLC): 1.83 µM; TGI (EKVX NSCLC): 4.37 µM; GI50 (HCC-2998 colon): 1.78 µM; TGI (HCC-2998 colon): 3.39 µM; GI50 (HL-60(TB) leukemia): 2.86 µM; TGI (HL-60(TB) leukemia): 9.81 µM; GI50 (HOP-92 NSCLC): 2.25 µM; TGI (HOP-92 NSCLC): 5.54 µM; GI50 (HS 578T breast): 2.56 µM; TGI (HS 578T breast): 9.25 µM; GI50 (HT29 colon): 1.77 µM; TGI (HT29 colon): 3.62 µM; GI50 (IGROV1 ovarian): 1.99 µM; TGI (IGROV1 ovarian): 4.52 µM; GI50 (K-562 leukemia): 3.44 µM; TGI (K-562 leukemia): > 100 µM; GI50 (KM12 colon): 1.94 µM; TGI (KM12 colon): 4.09 µM; GI50 (M14 melanoma): 1.79 µM; TGI (M14 melanoma): 4.09 µM; GI50 (MALME-3M melanoma): 1.87 µM; TGI (MALME-3M melanoma): 3.31 µM; GI50 (MDA-MB-231 breast): 1.91 µM; TGI (MDA-MB-231 breast): 3.5 µM; GI50 (MDA-MB-435): 2.07 µM; TGI (MDA-MB-435): 4.65 µM; GI50 (MDA-MB-468 breast): 1.56 µM; TGI (MDA-MB-468 breast): 3.04 µM; GI50 (NCI-H226 lung): 4.76 µM; TGI (NCI-H226 lung): 42.9 µM; GI50 (NCI-H522 lung): 1.65 µM; TGI (NCI-H522 lung): 3.34 µM; GI50 (NCI/ADR-RES ovarian): 2.22 µM; TGI (NCI/ADR-RES ovarian): 5.09 µM; GI50 (OVCAR-4 ovarian): 3.06 µM; TGI (OVCAR-4 ovarian): 11.2 µM; GI50 (OVCAR-5 ovarian): 1.91 µM; TGI (OVCAR-5 ovarian): 3.93 µM; GI50 (OVCAR-8 ovarian): 2.84 µM; TGI (OVCAR-8 ovarian): 8.51 µM; GI50 (PC-3 prostate): 2.09 µM; TGI (PC-3 prostate): 5.36 µM; GI50 (RPMI-8226 leukemia): 2.98 µM; TGI (RPMI-8226 leukemia): 9.57 µM; GI50 (RXF 393 renal): 1.85 µM; TGI (RXF 393 renal): 4.65 µM; GI50 (SF-268 CNS): 2.13 µM; TGI (SF-268 CNS): 5.87 µM; GI50 (SF-539 CNS): 1.75 µM; TGI (SF-539 CNS): 3.22 µM; GI50 (SK-MEL-2 melanoma): 1.88 µM; TGI (SK-MEL-2 melanoma): 4.27 µM; GI50 (SK-MEL-28 melanoma): 1.85 µM; TGI (SK-MEL-28 melanoma): 3.52 µM; GI50 (SK-MEL-5 melanoma): 1.92 µM; TGI (SK-MEL-5 melanoma): 3.82 µM; GI50 (SK-OV-3 ovarian): 6.31 µM; TGI (SK-OV-3 ovarian): > 100 µM; GI50 (SN12C renal): 1.91 µM; TGI (SN12C renal): 3.87 µM; GI50 (SNB-19 CNS): 2.02 µM; TGI (SNB-19 CNS): 4.39 µM; GI50 (SNB-75 CNS): 2.05 µM; TGI (SNB-75 CNS): 9.74 µM; GI50 (SR leukemia): 5.95 µM; TGI (SR leukemia): > 100 µM; GI50 (T-47D breast): 1.97 µM; TGI (T-47D breast): 4.72 µM; GI50 (TK-10 renal): 2.08 µM; TGI (TK-10 renal): 5.53 µM; GI50 (UACC-257 melanoma): 1.95 µM; TGI (UACC-257 melanoma): 4.31 µM; GI50 (UACC-62 melanoma): 1.65 µM; TGI (UACC-62 melanoma): 3.28 µM; GI50 (UO-31 renal): 1.71 µM; TGI (UO-31 renal): 3.53 µM

Q: What does the source list for `CCN(CC)CCOc1ccc(C2=C(c3ccccc3)CCc3cc(OC)ccc32)cc1`?
A: GI50 (MDA-MB-468 breast): 0.138 µM; TGI (MDA-MB-468 breast): 0.418 µM

Q: With `C#Cc1cccc(Nc2ncnc3ccc(-c4cncc(NS(C)(=O)=O)c4)cc23)c1` as the compound, how does the GI50 (MDA-MB-468 breast) read?
A: The GI50 was 0.208 µM.

Q: What about the TGI (MDA-MB-468 breast) of the same compound?
A: The TGI was 0.731 µM.

Q: With `O=c1[nH]c2cc(O)ccc2n2cc3c(F)cccc3c12` as the compound, how does the GI50 (MDA-MB-468 breast) read?
A: The GI50 was 1.36 µM.

Q: What about the TGI (MDA-MB-468 breast) of the same compound?
A: Its TGI is > 100 µM.

Q: How did the GI50 (MDA-MB-468 breast) turn out when `C=CC[PH+](c1ccccc1)c1ccccc1.C=CC[PH+](c1ccccc1)c1ccccc1.[Cl][Pt][Cl]` was run?
A: Its GI50 is 2.64 µM.

Q: And the TGI (MDA-MB-468 breast)?
A: Its TGI is 7.1 µM.

Q: Which results are given for `N#Cc1ccc(N2Cc3cc(Cl)ccc3OC3=C2C(=O)N(Cc2ccccc2)C3=O)cc1`?
A: GI50 (MDA-MB-468 breast): 1.22 µM; TGI (MDA-MB-468 breast): 3.26 µM

Q: What does the source list for `Cc1csc(Nc2nc(-c3cccc(Cl)c3)nc(C(Cl)(Cl)Cl)n2)n1`?
A: GI50 (MDA-MB-468 breast): 0.728 µM; TGI (MDA-MB-468 breast): 2.18 µM

Q: What does the source list for `CCCCCCCCCCCCNC(=O)[C@H]1CSC(c2ccc(OC)c(F)c2)N1` (stereo partly drawn)?
A: GI50 (MDA-MB-468 breast): 1.28 µM; TGI (MDA-MB-468 breast): 2.82 µM

Q: Which results are given for `Cn1cc(-c2nn3cc(-c4cccs4)nc3s2)c2cc(F)ccc21`?
A: GI50 (MDA-MB-468 breast): 1.44 µM; TGI (MDA-MB-468 breast): 5.47 µM

Q: What does the source list for `Cc1cnc2[nH]c(-c3ccccc3)cc(=O)c2c1`?
A: GI50 (MDA-MB-468 breast): 24.6 µM; TGI (MDA-MB-468 breast): > 100 µM

Q: With `CC(=O)N[C@@H]1CCC[C@H](C(=O)Nc2cc(-c3cnn4c3CC(C)(C)C4)c(Cl)cn2)C1` as the compound, how does the GI50 (MDA-MB-468 breast) read?
A: Its GI50 is < 0.01 µM.

Q: And the TGI (MDA-MB-468 breast)?
A: The TGI was 0.049 µM.

Q: Which results are given for `C#Cc1nc(C2=C(C)C(O)/C(=N/O)C2)cs1` (stereo not drawn)?
A: GI50 (MDA-MB-468 breast): 17.6 µM; TGI (MDA-MB-468 breast): > 100 µM

Q: How did the GI50 (MDA-MB-468 breast) turn out when `COc1ccc(-n2nc(C)c3c2N(C)C2(C)C[C@@H]4C3(C)[C@@H]3CC4(C2)N(C)c2c(c(C)nn2-c2ccc(OC)cc2)[C@H]3C)cc1` (stereo partly drawn) was run?
A: Its GI50 is 4.76 µM.

Q: And the TGI (MDA-MB-468 breast)?
A: Its TGI is 64.8 µM.

Q: With `O=[N+]([O-])c1cccc(-c2ncc(-c3ccc(Cl)cc3Cl)[nH]2)c1` as the compound, how does the GI50 (MDA-MB-468 breast) read?
A: Its GI50 is 1.63 µM.

Q: And the TGI (MDA-MB-468 breast)?
A: Its TGI is 3.54 µM.

Q: How did the GI50 (MDA-MB-468 breast) turn out when `COc1cc(OC)c(/C=C/S(=O)(=O)Cc2ccc(OC)c(NCC(=O)O)c2)c(OC)c1` was run?
A: Its GI50 is 0.121 µM and 0.187 µM.

Q: What about the TGI (MDA-MB-468 breast) of the same compound?
A: The TGI was > 100 µM.
